Experimental data published in patent publication US11672775B2, “Treprostinil prodrugs” (United Therapeutics Corporation, priority 2016, dated 2023).

Tests used:
DP1 receptor = molecular target: T1, DP1 receptor (Homo sapiens, UniProt Q13258); test: cAMP assay (TR-FRET or HTRF kit, forskolin), Examples 5 and 6; format: cell-based; settings: Table 3 (Example 5); read-out: EC50, DP receptor
T1 construct: expressed in transfected cells
T1 sequence (Q13258 1-359): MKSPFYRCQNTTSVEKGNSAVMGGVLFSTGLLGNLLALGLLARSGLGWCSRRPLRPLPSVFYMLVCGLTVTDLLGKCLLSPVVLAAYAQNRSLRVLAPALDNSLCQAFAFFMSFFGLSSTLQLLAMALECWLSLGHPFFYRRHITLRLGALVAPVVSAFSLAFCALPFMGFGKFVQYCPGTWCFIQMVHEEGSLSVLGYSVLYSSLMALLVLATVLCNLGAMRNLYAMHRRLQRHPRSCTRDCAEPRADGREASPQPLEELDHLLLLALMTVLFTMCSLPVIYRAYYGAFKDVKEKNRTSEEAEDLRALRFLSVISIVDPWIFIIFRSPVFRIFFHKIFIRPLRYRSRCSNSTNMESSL
Description: (§1) [table] Prodrug XV (for structure see FIG. 10) as well as treprostinil were tested for 3 G-protein-coupled receptors (GPCRs), namely DP1, EP2, and IP, using cyclic adenosine monophosphate (cAMP) assay. Cyclic AMP assay kits: Multiscreen™ TR-FRET cAMP 1.0 No Wash Assay Kit (Multispan, Inc., Cat #MSCM01-25) and HTRF cAMP HiRange Kit (CisBio, Cat #62AM6PEC). Instruments: FlexStation III (Molecular Devices). Cyclic AMP (cAMP) Assay: cAMP assays were performed according to the manufacturer's protocol using Multiscreen™ TR-FRET cAMP 1.0 No Wash Assay Kit or HTRF cAMP HiRange Kit. […] The reaction was terminated by sequentially adding sequentially adding trFluor™ Eu-labeled cAMP and trFluor™ 650-labeled anti-cAMP antibody or D2-labeled cAMP and cryptate-labeled anti-cAMP antibody in lysis buffer. The plate was then incubated at room temperature for 60 minutes before reading fluorescent emissions at 620 nm and 665 or 668 nm with excitation at 314 nm on FlexStation III (Molecular Devices). Cyclic AMP (cAMP) assays: Cyclic AMP assay results are shown as “Ratio 665/620×10,000” (ratio of fluorescence at 665 nm and 620 nm×10,000) or “Ratio 668/620×10,000” (ratio of fluorescence at 668 nm and 620 nm×10,000). Data in graphs were represented in Mean±SD. Dose-dependent responses were fitted with sigmoidal dose-response curves allowing variable slopes using GraphPad Prism versions 4, 5 or 6 (Graphpad Prism). Treprostinil Prodrug XIV (for structure see FIG. 10) as well as treprostinil were tested for 3 G-protein-coupled receptors (GPCRs), namely DP1, EP2, and IP, using cyclin adenosine monophosphate (cAMP) assay. Cyclic AMP assay kits: Multiscreen™ TR-FRET cAMP 1.0 No Wash Assay Kit (Multispan, Inc., Cat #MSCM01-25) and HTRF cAMP HiRange Kit (CisBio, Cat #62AM6PEC). Cyclic AMP (cAMP) Assay: cAMP assays were performed according to the manufacturer's protocol using Multiscreen™ TR-FRET cAMP 1.0 No Wash Assay Kit or HTRF cAMP HiRange Kit. […] The reaction was terminated by sequentially adding sequentially adding trFluor™ Eu-labeled cAMP and trFluor™ 650-labeled anti-cAMP antibody or D2-labeled cAMP and cryptate-labeled anti-cAMP antibody in lysis buffer. The plate was then incubated at room temperature for 60 minutes before reading fluorescent emissions at 620 nm and 665 or 668 nm with excitation at 314 nm on FlexStation III (Molecular Devices). Cyclic AMP (cAMP) assays: Cyclic AMP assay results are shown as “Ratio 665/620×10,000” (ratio of fluorescence at 665 nm and 620 nm×10,000) or “Ratio 668/620×10,000” (ratio of fluorescence at 668 nm and 620 nm×10,000). Data in graphs were represented in Mean±SD. Dose-dependent responses were fitted with sigmoidal dose-response curves allowing variable slopes using GraphPad Prism versions 4, 5 or 6 (Graphpad Prism).

EP2 receptor = molecular target: T2, EP2 receptor (Homo sapiens, UniProt P43116); test: as above; format: cell-based; settings: Table 3 (Example 5); read-out: EC50, EP receptor
T2 construct: expressed in transfected cells
T2 sequence (P43116 whole entry): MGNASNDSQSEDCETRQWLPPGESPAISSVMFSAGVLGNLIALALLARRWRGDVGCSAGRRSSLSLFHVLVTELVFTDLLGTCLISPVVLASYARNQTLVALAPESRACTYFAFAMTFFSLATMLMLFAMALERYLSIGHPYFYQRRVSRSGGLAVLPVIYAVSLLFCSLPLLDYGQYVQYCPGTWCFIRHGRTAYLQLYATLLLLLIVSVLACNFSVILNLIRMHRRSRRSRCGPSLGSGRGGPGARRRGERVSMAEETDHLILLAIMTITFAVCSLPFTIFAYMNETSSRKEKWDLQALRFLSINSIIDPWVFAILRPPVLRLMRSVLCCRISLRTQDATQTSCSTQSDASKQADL
Description: as §1

IP1 receptor = molecular target: T3, IP1 receptor (Homo sapiens, UniProt P43119); test: as above; format: cell-based; settings: Table 3 (Example 5); read-out: EC50, IP receptor
T3 construct: expressed in transfected cells
T3 sequence (P43119 whole entry): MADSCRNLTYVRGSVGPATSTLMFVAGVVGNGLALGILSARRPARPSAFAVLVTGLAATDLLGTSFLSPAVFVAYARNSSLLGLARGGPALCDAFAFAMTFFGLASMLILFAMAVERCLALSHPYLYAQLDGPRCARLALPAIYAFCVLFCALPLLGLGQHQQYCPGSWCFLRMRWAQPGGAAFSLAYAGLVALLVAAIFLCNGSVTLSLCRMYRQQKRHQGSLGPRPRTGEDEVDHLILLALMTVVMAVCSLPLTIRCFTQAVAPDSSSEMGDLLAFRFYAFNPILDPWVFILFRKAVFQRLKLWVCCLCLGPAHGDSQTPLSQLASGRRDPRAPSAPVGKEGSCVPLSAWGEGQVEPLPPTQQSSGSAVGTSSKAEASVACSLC
Description: as §1

Sprague Dawley rats [1] = test: Rat intraplantar injection model, thermal pain sensitivity (Example 9); format: in vivo, Sprague Dawley rat; settings: 1 μg/mL or 100 μg/mL; 15 minutes post-administration
Description: (§2) Male Sprague Dawley rats (n=112) were allocated into 14 groups of 8/group. The study was run in 2 cycles, on consecutive days, 7 groups per cycle. Each cycle was composed of a Saline group, PBS group, which served as the control, and also treprostinil at a dose of 100 μg/mL or 1 μg/mL.
(§3) Animals were administered 0.1 mL of test material by subcutaneous injection into the paw pad (Intraplantar injection) at time zero. Animals were subsequently evaluated for their response to mechanical (von Frey filaments) and thermal stimuli, 15 and 90 minutes post-injection. The von Frey test was conducted prior to the thermal test, which followed immediately within minutes for each animal. In addition, clinical observation scoring of the animal's reaction to injection was conducted. FIG. 16 schematically illustrates the study design.
The sensitivity of animals to a thermal pain stimulus was assessed immediately following the von Frey test. The time until withdrawal of the right-injected leg from a heat source was measured, and the lower (faster) the time of response represents a greater sensitivity to the stimulus. The test was performed 15 and 90 minutes post-Test Item injection.

Sprague Dawley rats [2] = test: Rat intraplantar injection model, clinical observation score (Example 9); format: in vivo, Sprague Dawley rat
Description: as §2, §3
A Clinical observation score was assigned by assessing for redness, swelling and paw placement.

Sprague Dawley rats [3] = test: Clinical observations following subcutaneous injection (Example 12); format: in vivo, Sprague Dawley rat; settings: 0.1 and 0.3 mg/kg SC; some animals; approximately 4 hours postdosing
Description: Clinical observations were performed at approximately 6 hours prior to dosing, at the completion of dosing and at approximately 4 hours postdosing.

Compound: CCCCC[C@H](O)CC[C@@H]1[C@H]2Cc3cccc(OCC(=O)O)c3C[C@H]2C[C@H]1O [Treprostinil]
- EC50 (DP1 receptor): 0.078 nM
- EC50 (EP2 receptor): 0.537 nM
- EC50 (IP1 receptor): 0.0779 nM
- thermal paw withdrawal time vs PBS treated group (Sprague Dawley rats [1]): statistically significantly faster paw withdrawal time
- clinical score (Sprague Dawley rats [2]; 1 μg/mL (cycle 2), both time points (15 and 90 min)): non-zero
- clinical score vs PBS treated group (Sprague Dawley rats [2]; 1 μg/mL or 100 μg/mL, 15 and 90 minutes post-injection): statistically significant increase in the clinical score
- clinical score (Sprague Dawley rats [2]; 100 μg/mL (cycle 1), 15 min): non-zero
- clinical score vs PBS group (Sprague Dawley rats [2]; 100 μg/mL (cycle 1), 90 minutes post-injection): non-zero
- clinical observations (Sprague Dawley rats [3]): flushed extremities
